Experimental data taken from patent publication US10570179B2, “Substituted urea depsipeptide analogs as activators of the CLPP endopeptidase” (priority 2016, dated 2020).
≈ marks a conversion by molar mass, not a printed value. Like-named read-outs stand apart in the source and are kept apart here. Numbered stars: 1 amine (or outer) side, 2 acyl side, 3 side chain; on linkers, the order of the positions; unused ones are H or OH. Bridge positions count the residues as written; N and C are the ends. Square brackets hold non-standard residues; d marks the D form. Peptide text beside a SMILES is read from it. * marks the point of attachment. X6 = O=C([C@@H]1CS(=O)(=O)CCN1[*:1])[*:2]; Phe(3-Me) = Cc1cccc(C[C@H](N)C(=O)O)c1; Pro(4S-Me) = C[C@@H]1CN[C@H](C(=O)O)C1; NH(4-Cl-2-F-phenyl) = Fc1cc(Cl)ccc1N*; Pro(4R-Me) = C[C@H]1CN[C@H](C(=O)O)C1; Propanoyl(3-NMe2) = CN(C)CCC(=O)*; X1 = O=C([C@@H]1CSCCN1[*:1])[*:2]; Hyp = O=C(O)[C@@H]1C[C@@H](O)CN1; NH(4-Me-phenyl) = Cc1ccc(N*)cc1; aThr = C[C@H](O)[C@H](N)C(=O)O; Pip = O=C(O)[C@@H]1CCCCN1; 4Abz = Nc1ccc(C(=O)O)cc1; X3 = c1cc2c(cc1N*)OCCO2; CO = O=C([*:1])[*:2]

What was measured:
Plasma pharmacokinetics = assay type: in vivo, male BALB/c mice; conditions: male, BALB/c, mouse, in vivo, iv
Solubility determination = assay type: physicochemical; conditions: for solubility kinetic at 10 min: 22 °C, aqueous buffer, kinetic from dmso stock
Protocol: Test compounds were synthesized and supplied by the Department of Chemical Biology and Therapeutics at St. Jude Children's Research Hospital (Memphis, Tenn.). LC-MS chromasolv grade acetonitrile (ACN) was purchased from Fisher Scientific (Loughborough, UK). LC-MS chromasolv grade formic acid was obtained from Sigma-Aldrich (St. Louis, Mo.). Milli-Q water as an ultrapure laboratory grade water was used in aqueous mobile phase.
Chromatographic separation was performed on an Acquity UPLC BEH C18 1.7 μm, 2.1×50 mm column (Waters Corporation, Milford, Mass.) using an Acquity ultra performance liquid chromatography system. The total flow rate was 0.9 mL/min. The sample injection volume was 10 μL. The UPLC column was maintained at 60° C. and the gradient program started at 90% A (0.1% formic acid in MilliQ H2O), changed to 70% A over 0.2 min, to 95% B (0.1% formic acid in ACN) over 1.4 minutes, held for 0.35 minutes, then to 90% A over 0.05 minutes.
Mass data was acquired with an Acquity SQD Mass Spectrometer. The mass spectrometer was operated in positive-ion mode with electrospray ionization. The conditions were as follows: capillary voltage 3.5 kV, cone voltage 30 V, source temperature 150° C., desolvation temperature 350° C., desolvation gas 500 L/hr, cone gas 25 L/hr. Data were acquired using Masslynx v. 4.1 and analyzed using the Quanlynx software suite. A full scan range from m/z=100-1000 in 0.2 s was used to acquire MS data. Both UV and Single ion recording mass spectrometry were used to determine the quantification of the samples.
Stock solutions were prepared by dissolving compounds into DMSO to yield a concentration of 10 mM. Stock solutions were stored at room temperature.
Calibration standards were made by adding stock solutions to DMSO for final concentrations of compounds at concentration of 100, 25, 6.25, 1.563, 0.391 and 0.098 μM.
Solubility test samples were made by adding stock solutions to 200 μL, of DPBS for final concentrations of compounds at 100 μM in a 96-well analytical plate (300 μL, maximum volume in each well). Samples were tested in triplicates. The plate was sealed, shaken at 600 rpm for 10 minutes, and then was centrifuged at 4000 rpm for 20 min at 22° C. 100 μL, of the supernatant was transferred to a new analytical 96-well plate and 10 μL, was injected onto the LCMS system.
Two calibration curves for solubility test samples were analyzed during the quantitation process. The linear regression of test compound peak areas was weighted by 1/x^2. […] Coefficient of determination (R^2) was used to evaluate the linearity of each calibration curve.

[1] = solubility in DPBS, 100 μM test samples, LCMS, read-out: LCMS

| Structure (SMILES) | μsol (μM) (Solubility determination) | solubility kinetic at 10 min (Solubility determination) | solubility kinetic at 10 min (Solubility determination; [1]) | μsol (μM) (Solubility determination; solubility) | also measured |
| --- | --- | --- | --- | --- | --- |
| Cc1cccc(C[C@H](NC(=O)Nc2ccc(Cl)cc2F)C(=O)N[C@@H]2C(=O)N3CCC[C@H]3C(=O)N3CCSC[C@H]3C(=O)N[C@@H](C)C(=O)N3C[C@H](C)C[C@H]3C(=O)O[C@H]2C)c1 [Compound 38, (S)-2-(3-(4-CHLORO-2-FLUOROPHENYL)UREIDO)-3-(M-TOLYL)-N-((6AS,12S,13S,15AS,17R,21S,23AR)-13,17,21-TRIMETHYL-6,11,15,20,23-PENTAOXOOCTADECAHYDRO-6H,11H,15H-DIPYRROLO[2,1-C:2′,1′-L][1,4]THIAZINO[3,4-I][1]OXA[4,7,10,13]TETRAAZACYCLOHEXADECIN-12-YL)PROPANAMIDE] ({NH(4-Cl-2-F-phenyl)-CO}-[Phe(3-Me)][aThr]P[X1]A[Pro(4R-Me)]; ester 2-C) | 1.7 ± .70 µM | 0.011 ± 0.011 µM (≈ 0.00927 µg/mL) | – | – | AUC(0-inf) (Plasma pharmacokinetics): 13300 ng·h/mL; AUC(0-t) (Plasma pharmacokinetics): 13200 ng·h/mL; C^0 (Plasma pharmacokinetics): 16999.46 ng/mL; clearance (Plasma pharmacokinetics): 12.6 mL/min/kg; half-life (Plasma pharmacokinetics): 187 min; Vd (Plasma pharmacokinetics; 10 mg/kg, Route i.v., read-out: Vss): 1.77 L/kg |
| CCOC(=O)c1ccc(NC(=O)N[C@@H](Cc2cccc(C)c2)C(=O)N[C@@H]2C(=O)N3C[C@H](O)C[C@H]3C(=O)N3CCCC[C@H]3C(=O)N[C@@H](C)C(=O)N3C[C@H](C)C[C@H]3C(=O)O[C@H]2C)cc1 [Compound 36, ETHYL 4-(3-((S)-1-(((2R,6S,8AS,14AS,16R,20S,21S,23AS)-16-HYDROXY-2,6,21-TRIMETHYL-5,8,14,19,23-PENTAOXOOCTADECAHYDRO-1H,5H,14H,19H-PYRIDO[2,1-I]DIPYRROLO[2,1-C:2′,1′-L][1]OXA[4,7,10,13]TETRAAZACYCLOHEXADECIN-20-YL)AMINO)-1-OXO-3-(M-TOLYL)PROPAN-2-YL)UREIDO)BENZOATE] ({OEt-4Abz-CO}-[Phe(3-Me)][aThr][Hyp][Pip]A[Pro(4R-Me)]; ester 2-C) | – | – | 8.17 ± 0.167 µM (≈ 7.02 µg/mL) | 6.4 ± .40 µM | – |
| Cc1cccc(C[C@H](NC(=O)Nc2ccc(Cl)cc2F)C(=O)N[C@@H]2C(=O)N3C[C@H](OC(=O)CCN(C)C)C[C@H]3C(=O)N3CCCC[C@H]3C(=O)N[C@@H](C)C(=O)N3C[C@H](C)C[C@H]3C(=O)O[C@H]2C)c1 [Compound 46, (2R,6S,8AS,14AS,16R,20S,21S,23AS)-20-((S)-2-(3-(4-CHLORO-2-FLUOROPHENYL)UREIDO)-3-(M-TOLYL)PROPANAMIDO)-2,6,21-TRIMETHYL-5,8,14,19,23-PENTAOXOOCTADECAHYDRO-1H,5H,14H,19H-PYRIDO[2,1-I]DIPYRROLO[2,1-C:2′,1′-L][1]OXA[4,7,10,13]TETRAAZACYCLOHEXADECIN-16-YL 3-(DIMETHYLAMINO)PROPANOATE] ({NH(4-Cl-2-F-phenyl)-CO}-[Phe(3-Me)][aThr][Hyp](Propanoyl(3-NMe2))[Pip]A[Pro(4R-Me)]; ester 2-C) | 12.1 ± 1.5 µM | 195 ± 27 µM (≈ 183 µg/mL) | – | – | – |
| Cc1ccc(NC(=O)N[C@@H](Cc2cccc(C)c2)C(=O)N[C@@H]2C(=O)N3CCC[C@H]3C(=O)N3CCCC[C@H]3C(=O)N[C@@H](C)C(=O)N3C[C@@H](C)C[C@H]3C(=O)O[C@H]2C)cc1 [Compound 45, (S)-3-(M-TOLYL)-2-(3-(P-TOLYL)UREIDO)-N-((2S,6S,8AS,14AS,20S,21S,23AS)-2,6,21-TRIMETHYL-5,8,14,19,23-PENTAOXOOCTADECAHYDRO-1H,5H,14H,19H-PYRIDO[2,1-I]DIPYRROLO[2,1-C:2′,1′-L][1]OXA[4,7,10,13]TETRAAZACYCLOHEXADECIN-20-YL)PROPANAMIDE] ({NH(4-Me-phenyl)-CO}-[Phe(3-Me)][aThr]P[Pip]A[Pro(4S-Me)]; ester 2-C) | – | – | 44.5 ± 2.7 µM (≈ 35 µg/mL) | 44.7 ± 4.2 µM | – |
| Cc1ccc(NC(=O)N[C@@H](Cc2cccc(C)c2)C(=O)N[C@@H]2C(=O)N3C[C@H](O)C[C@H]3C(=O)N3CCCC[C@H]3C(=O)N[C@@H](C)C(=O)N3C[C@H](C)C[C@H]3C(=O)O[C@H]2C)cc1 [Compound 26, (S)—N-((2R,6S,8AS,14AS,16R,20S,21S,23AS)-16-HYDROXY-2,6,21-TRIMETHYL-5,8,14,19,23-PENTAOXOOCTADECAHYDRO-1H,5H,14H,19H-PYRIDO[2,1-I]DIPYRROLO[2,1-C:2′,1′-L][1]OXA[4,7,10,13]TETRAAZACYCLOHEXADECIN-20-YL)-3-(M-TOLYL)-2-(3-(P-TOLYL)UREIDO)PROPANAMIDE] ({NH(4-Me-phenyl)-CO}-[Phe(3-Me)][aThr][Hyp][Pip]A[Pro(4R-Me)]; ester 2-C) | – | – | 45.3 ± 1.89 µM (≈ 36.3 µg/mL) | 47.7 ± 0.4 µM | – |
| Cc1cccc(C[C@H](NC(=O)Nc2ccc3c(c2)OCCO3)C(=O)N[C@@H]2C(=O)N3CCC[C@H]3C(=O)N3CCCC[C@H]3C(=O)N[C@@H](C)C(=O)N3C[C@H](C)C[C@H]3C(=O)O[C@H]2C)c1 [Compound 21, (S)-2-(3-(2,3-DIHYDROBENZO[B][1,4]DIOXIN-6-YL)UREIDO)-3-(M-TOLYL)-N-((2R,6S,8AS,14AS,20S,21S,23AS)-2,6,21-TRIMETHYL-5,8,14,19,23-PENTAOXOOCTADECAHYDRO-1H,5H,14H,19H-PYRIDO[2,1-I]DIPYRROLO[2,1-C:2′,1′-L][1]OXA[4,7,10,13]TETRAAZACYCLOHEXADECIN-20-YL)PROPANAMIDE] ({X3-CO}-[Phe(3-Me)][aThr]P[Pip]A[Pro(4R-Me)]; ester 2-C) | 36.8 ± 1.6 µM | 30.6 ± 0.7 µM (≈ 25.4 µg/mL) | – | – | – |
| Cc1cccc(C[C@H](NC(=O)Nc2ccc(Cl)cc2F)C(=O)N[C@@H]2C(=O)N3CCC[C@H]3C(=O)N3CCS(=O)(=O)C[C@H]3C(=O)N[C@@H](C)C(=O)N3C[C@H](C)C[C@H]3C(=O)O[C@H]2C)c1 [Compound 40, (S)-2-(3-(4-CHLORO-2-FLUOROPHENYL)UREIDO)-3-(M-TOLYL)-N-((6AS,12S,13S,15AS,17R,21S,23AR)-13,17,21-TRIMETHYL-2,2-DIOXIDO-6,11,15,20,23-PENTAOXOOCTADECAHYDRO-6H,11H,15H-DIPYRROLO[2,1-C:2′,1′-L][1,4]THIAZINO[3,4-I][1]OXA[4,7,10,13]TETRAAZACYCLOHEXADECIN-12-YL)PROPANAMIDE] ({NH(4-Cl-2-F-phenyl)-CO}-[Phe(3-Me)][aThr]P[X6]A[Pro(4R-Me)]; ester 2-C) | 0 µM | 2.21 ± 0.208 µM (≈ 1.93 µg/mL) | – | – | – |
| Cc1ccc(NC(=O)N[C@@H](Cc2cccc(C)c2)C(=O)N[C@@H]2C(=O)N3C[C@H](O)C[C@H]3C(=O)N3CCSC[C@H]3C(=O)N[C@@H](C)C(=O)N3C[C@H](C)C[C@H]3C(=O)O[C@H]2C)cc1 [Compound 42, (S)—N-((6AS,8R,12S,13S,15AS,17R,21S,23AR)-8-HYDROXY-13,17,21-TRIMETHYL-6,11,15,20,23-PENTAOXOOCTADECAHYDRO-6H,11H,15H-DIPYRROLO[2,1-C:2′,1′-L][1,4]THIAZINO[3,4-I][1]OXA[4,7,10,13]TETRAAZACYCLOHEXADECIN-12-YL)-3-(M-TOLYL)-2-(3-(P-TOLYL)UREIDO)PROPANAMIDE] ({NH(4-Me-phenyl)-CO}-[Phe(3-Me)][aThr][Hyp][X1]A[Pro(4R-Me)]; ester 2-C) | – | – | 29.2 ± 9.2 µM (≈ 23.9 µg/mL) | 29.7 ± 9.7 µM | – |
